Measured values from patent US20240041804A1, “NHE-1 INHIBITORS FOR THE TREATMENT OF CORONAVIRUS INFECTIONS” (priority 2020, published 2024).
“Also recorded” adds a separate entry of the source. Where two headings read alike, the source gives them in different places.

Columns and labels:
[1] = test system: LPS induced lung injury; settings: amiloride pretreatment 10 mg/kg intravenous injection, rats; cited from earlier work
[2] = molecular target: SARS-CoV envelope protein ion channels (SARS-CoV E protein) (Severe acute respiratory syndrome coronavirus, UniProt P59637); settings: cited from earlier work
Sequence of SARS-CoV envelope protein ion channels (SARS-CoV E protein) (P59637 whole entry, looked up): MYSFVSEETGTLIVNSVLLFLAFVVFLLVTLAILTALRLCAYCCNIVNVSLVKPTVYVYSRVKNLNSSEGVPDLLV

[3] = test system: store-operated calcium entry (SOCE); experiment: Store-operated calcium entry (45Ca2+ accumulation) in myotubes; assay type: cell-based
[4] = test system: human platelet swelling; experiment: In vitro platelet swelling assay with human platelet rich plasma; assay type: cell-based; settings: OD 680 nm, pH 6.6, read-out: IC50 of inhibition of platelet swelling (+SEM)
[5] = molecular target: T1, NHE-1 (Mus musculus, UniProt Q61165); experiment: 22Na+ influx in myotube cultures; assay type: cell-based
T1 construct: time-course of ^22Na^+ influx studied in wild type and dystrophic myotube cultures; endogenous in cells; host or cells: primary wild type and dystrophic myotubes
T1 sequence (Q61165 whole entry): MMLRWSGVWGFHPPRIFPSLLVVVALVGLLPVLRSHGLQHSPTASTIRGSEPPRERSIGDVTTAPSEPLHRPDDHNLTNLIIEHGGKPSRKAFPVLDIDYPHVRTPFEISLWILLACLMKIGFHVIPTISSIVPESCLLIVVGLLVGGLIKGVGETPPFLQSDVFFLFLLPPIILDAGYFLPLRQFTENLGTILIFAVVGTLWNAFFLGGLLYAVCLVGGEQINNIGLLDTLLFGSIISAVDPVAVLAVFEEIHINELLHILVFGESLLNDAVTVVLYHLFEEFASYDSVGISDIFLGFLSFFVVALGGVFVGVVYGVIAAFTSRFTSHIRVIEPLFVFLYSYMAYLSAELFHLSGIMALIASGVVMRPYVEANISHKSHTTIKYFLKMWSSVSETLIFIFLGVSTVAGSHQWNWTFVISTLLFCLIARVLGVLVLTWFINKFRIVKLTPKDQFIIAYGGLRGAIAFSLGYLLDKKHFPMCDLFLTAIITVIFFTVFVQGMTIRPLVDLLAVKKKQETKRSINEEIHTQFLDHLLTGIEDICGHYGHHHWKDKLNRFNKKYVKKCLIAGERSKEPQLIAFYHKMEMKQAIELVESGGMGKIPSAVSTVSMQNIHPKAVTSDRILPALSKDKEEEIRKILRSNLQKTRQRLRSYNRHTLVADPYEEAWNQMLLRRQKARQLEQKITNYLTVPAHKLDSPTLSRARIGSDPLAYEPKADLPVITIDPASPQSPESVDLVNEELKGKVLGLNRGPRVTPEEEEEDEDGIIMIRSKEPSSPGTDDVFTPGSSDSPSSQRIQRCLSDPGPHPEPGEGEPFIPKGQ

[6] = test system: platelet aggregation
[7] = test system: platelet swelling; experiment: Ex vivo platelet swelling, Eniporide phase I studies in healthy subjects; parameters: species or system human
[8] = test system: platelet swelling; experiment: Ex vivo platelet swelling, Rimeporide multiple ascending dose study; assay type: in vivo, human; settings: day 3, multiple ascending dose study
[9] = test system: Su/Hx rat model of PAH; experiment: Su/Hx rat model of PAH: lung inflammation (CD68); assay type: in vivo; settings: 100 mg/kg/day in drinking water week 5-8; Su/Hx+Rime vs Su/Hx, week 8
[10] = single oral dose
[11] = test system: plasma circulating biomarkers (CCL15, KLK6, FAS, TNFα, MCP-1/CCL2); parameters: Term, TNFα: unit not given here; settings: DMD patients, 4-week oral treatment, cited from earlier work
[12] = test system: pigs of myocardial infarction; experiment: Anesthetized open-chest pig model of myocardial infarction; assay type: in vivo; settings: 1 mg/kg iv before occlusion, 7 mg/kg iv before reperfusion
[13] = test system: Su/Hx rat model of PAH; experiment: Su/Hx rat model of PAH: invasive hemodynamic monitoring; assay type: in vivo; settings: 100 mg/kg/day in drinking water week 5-8; Su/Hx+Rime vs Su/Hx, week 8
[14] = test system: Su/Hx rat model of PAH; experiment: Su/Hx rat model of PAH: echocardiography; assay type: in vivo; settings: 100 mg/kg/day in drinking water week 5-8; Su/Hx+Rime vs Su/Hx, week 8
[15] = test system: Su/Hx rat model of PAH; experiment: Su/Hx rat model of PAH: pulmonary vascular fibrosis (Masson trichome); assay type: in vivo; settings: 100 mg/kg/day in drinking water week 5-8; Su/Hx+Rime vs Su/Hx, week 8
[16] = test system: rat model of heart failure; experiment: Rat model of heart failure after myocardial infarction (permanent left coronary artery ligation); assay type: in vivo
[17] = test system: male mdx mice; experiment: Cathepsin enzyme activity by optical imaging (skeletal muscle inflammation) in mdx mice; assay type: in vivo, mouse; settings: 400 ppm Rimeporide in food, 5 weeks
[18] = test system: platelet swelling; experiment: Ex vivo platelet swelling, Rimeporide single oral ascending dose study; assay type: in vivo, human; settings: single oral dose 300 to 600 mg, healthy male volunteers
[19] = test system: Su/Hx rat model of PAH; experiment: Su/Hx rat model of PAH: right ventricle hypertrophy and fibrosis; assay type: in vivo; settings: 100 mg/kg/day in drinking water week 5-8; Su/Hx+Rime vs Su/Hx, week 8
[20] = test system: male mdx mice; experiment: Ex vivo H&E histopathology of diaphragm inflammation in mdx mice; parameters: species or system mouse; settings: 400 ppm Rimeporide
[21] = molecular target: T2, sodium-hydrogen exchange activity (NHE-1) (Rattus norvegicus, UniProt P26431); experiment: NHE activity (BCECF) in rat pulmonary arterial smooth muscle cells; assay type: cell-based; settings: PASMCs of Su/Hx pulmonary hypertension rats, 10^-6 to 10^-4 M
T2 construct: performed in rat PASMCs in vitro of both Normoxic and Su/Hx pulmonary hypertension (PH) rats; endogenous in cells; host or cells: primary rat PASMCs from normoxic and Su/Hx pulmonary hypertension rats
T2 sequence (P26431 whole entry): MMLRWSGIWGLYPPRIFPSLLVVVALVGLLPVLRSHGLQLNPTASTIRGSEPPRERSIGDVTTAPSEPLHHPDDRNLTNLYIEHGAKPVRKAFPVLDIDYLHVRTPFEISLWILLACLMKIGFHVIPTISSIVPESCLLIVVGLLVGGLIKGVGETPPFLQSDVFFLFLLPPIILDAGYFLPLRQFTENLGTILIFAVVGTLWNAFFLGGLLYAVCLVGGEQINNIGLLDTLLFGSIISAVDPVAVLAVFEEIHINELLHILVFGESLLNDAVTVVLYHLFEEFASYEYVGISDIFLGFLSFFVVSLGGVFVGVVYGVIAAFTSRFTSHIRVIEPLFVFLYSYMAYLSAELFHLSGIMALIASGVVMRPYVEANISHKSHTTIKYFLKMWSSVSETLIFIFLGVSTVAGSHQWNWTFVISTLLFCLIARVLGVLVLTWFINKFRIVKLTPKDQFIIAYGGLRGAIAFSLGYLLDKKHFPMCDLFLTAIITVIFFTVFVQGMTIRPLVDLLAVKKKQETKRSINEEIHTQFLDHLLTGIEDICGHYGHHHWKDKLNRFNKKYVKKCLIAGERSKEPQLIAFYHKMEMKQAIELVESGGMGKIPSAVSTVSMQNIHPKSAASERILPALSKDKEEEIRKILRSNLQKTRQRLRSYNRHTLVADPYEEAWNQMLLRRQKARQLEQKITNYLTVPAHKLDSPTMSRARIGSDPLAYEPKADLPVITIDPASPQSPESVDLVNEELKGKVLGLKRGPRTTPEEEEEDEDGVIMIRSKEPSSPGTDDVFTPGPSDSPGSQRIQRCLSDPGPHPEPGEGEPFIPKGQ

[22] = test system: rat model of myocardial infarction; experiment: Rat model of myocardial infarction (30 min occlusion, 90 min reperfusion); assay type: in vivo; settings: prophylactic, 0.01 to 1 mg/kg intravenously and 0.1 to 1 mg/kg per os
[23] = test system: dystrophic, mdx mice; experiment: Fibrosis in heart and diaphragm of mdx mice; assay type: in vivo, mouse; settings: given in a preventive manner

NC(N)=NC(=O)c1nc(Cl)c(N)nc1N [Amiloride, 3,5-Diamino-N-carbamimidoyl-6-chlorpyrazin-2-carbamid]
LPS induced lung injury [1]: significantly inhibited | effect on activity of E-proteins (ion channel) [2]: quasi-ineffective

Cc1nnsc1C(=O)Nc1ccc(-n2nc(C(F)(F)F)cc2C(F)(F)F)cc1 [BTP-2, reference compound]
effect on store-operated calcium entry (SOCE) [3]: abolished | inhibition of Ca2+ flux (SOCE protocol) ([3]; 10 μM): almost complete inhibition

CC(C)c1ccc(C(=O)NC(=N)N)cc1S(C)(=O)=O [Cariporide, N-(Diaminomethylidene)-3-methanesulfonyl-4-(propan-2-yl) benzamide]
IC50 [4]: 166 nM | comparison of NHE inhibitors on SOCE (rank order) [3]: Zoniporide>Cariporide, EIPA>Rimeporide | comparison of NHE inhibitors on 22Na+ fluxes (rank order) [5]: Zoniporide>Cariporide, EIPA>Rimeporide

CCN(c1nc(N)c(C(=O)N=C(N)N)nc1Cl)C(C)C [EIPA, 5-(N-ethyl-N-isopropyl)amiloride, reference compound]
comparison of NHE inhibitors on SOCE (rank order) ([3]; myotubes): Zoniporide>Cariporide, EIPA>Rimeporide | comparison of NHE inhibitors on 22Na+ fluxes (rank order) ([5]; myotubes): Zoniporide>Cariporide, EIPA>Rimeporide

Cc1cc(-n2cccc2)c(S(C)(=O)=O)cc1C(=O)NC(=N)N [Eniporide, N-(diaminomethylidene)-2-methyl-5-methylsulfonyl-4-pyrrol-1-ylbenzamide]
effect on platelet aggregation ([6]; human, in vivo): No clinically relevant effect | effects on PT or APTT (human, in vivo): no clinically relevant effects | IC50 [4]: 30 nM | inhibition of platelet swelling immediately post dosing ([7]; 50 mg and above, intravenous): total inhibition | inhibitory activity on platelet swelling ([7]; 2 times 200 mg as an infusion, 6 hours post first dose): 80% | inhibitory activity on platelet swelling remaining ([7]; 1.5 hours post dose, doses 100-200 mg): More than 80% | inhibitory activity on platelet swelling remaining ([7]; 3 hours post dose, doses 250-400 mg): More than 80% | dose from which platelet swelling was reduced ([7]; healthy subjects, single intravenous dose): ≥ 5 mg

NC(N)=NC(=O)c1nc(Cl)c(N2CCCCCC2)nc1N [HMA, 5-N, N-(hexamethylene)amiloride]
effect on activity of E-proteins (ion channel) [2]: significantly reduced activity of E-proteins

Cc1cc(S(C)(=O)=O)c(S(C)(=O)=O)cc1C(=O)NC(=N)N [Rimeporide, N-(4,5-bismethanesulfonyl-2-methylbenzoyl)guanidine]
subjects with some evidence of platelet swelling inhibition [8]: 67% | percentage of CD68+ cells relative to total nuclei in lung tissue [9]: significantly lower | effect on platelet aggregation ([6]; Rimeporide single oral dose, 10 μM ADP, 3, 24 and 48 hours post-dose): no evidence of inhibition of platelet aggregation | effects on PT and APTT (Rimeporide single oral dose study): No effects | plasma concentration, Subject 15 ([10]; 1 hour post-dose): 159 ng/mL | plasma concentration, Subject 15 ([10]; 3 hours post-dose): 3690 ng/mL | IC50 [4]: 455 nM | Term, TNFα ([11]; Luminex): −0.1726 | Term, CCL15 ([11]; OLink): −0.4489 | Term, FAS ([11]; OLink): −0.2823 | Term, KLK6 ([11]; OLink): −0.2612 | Term, MCP-1/CCL2 ([11]; OLink): −0.5675 | infarct size [12]: decrease infarct size | RV End Diastolic Pressure (EDP) [13]: significantly lower pressure | RV Tau [13]: significantly lower Tau | RV systolic pressure [13]: significantly lower pressure | Mean Pulmonary Arterial Pressure (mPAP) [14]: significantly lower mPAP | Pulmonary Artery Acceleration Time/Ejection Time (PA AT/ET) [14]: significantly higher PA AT/ET ratio | RV cardiac output (CO) [14]: significantly higher RV CO | RV free wall thickness [14]: significantly lower RV free wall thickness | RV internal diameter at diastole [14]: significantly lower RV internal diameter | pulmonary vascular fibrosis [15]: significantly lower fibrosis | myocardial hypertrophy and left ventricular function [16]: significantly and dose dependently reduce myocardial hypertrophy and preserve left ventricular function | survival [16]: substantial improvement in survival | reduction in Cathepsin B activity, forelimb ([17]; forelimb): −26% | reduction in Cathepsin B activity, hindlimb ([17]; hindlimb): −22% | rate constant of platelet swelling reaction post-dose vs pre-dose [18]: post-dose decrease in rate constant was consistently observed | RV fibrosis (Sirius Red) [19]: significantly lower fibrosis | Right Ventricle/Left Ventricle+Septum (RV/LV+S) weight ratio [19]: no statistically significant difference | effect on store-operated calcium entry (SOCE) [3]: inhibition of SOCE; also recorded: dose-dependently prevented SOCE | concentration giving strong SOCE inhibition reaching basal levels ([3]; dystrophic myotubes): 30 µM | lowest concentration with statistical differences in SOCE inhibition ([3]; dystrophic myotubes): 3 µM | comparison of NHE inhibitors on SOCE (rank order) ([3]; myotubes): weakest inhibitor | reduction in inflammation in the diaphragm (H&E) relative to vehicle [20]: 44% | effect on NHE activity in PASMCs [21]: inhibits NHE activity in the PASMCs in a dose-dependent manner | inhibition at 100 µM ([5]; 100 μM, after 10 to 20 min of influx, myotube cultures, read-out: inhibition of 22Na+ accumulation / Na+ influx): ~40% | comparison of NHE inhibitors on 22Na+ fluxes (rank order) ([5]; myotubes): weakest inhibitor | effect on 22Na+ accumulation ([5]; pretreatment 1-100 μM, normal and dystrophic myotubes): dose-dependent inhibition | infarct size [22]: reduce dose dependent infarct size | fibrosis in the heart and the diaphragm [23]: antifibrotic effect

N=C(N)NC(=O)c1cnn(-c2cccc3ncccc23)c1C1CC1 [Zoniporide, reference compound]
comparison of NHE inhibitors on SOCE (rank order) [3]: Zoniporide>Cariporide, EIPA>Rimeporide | comparison of NHE inhibitors on 22Na+ fluxes (rank order) ([5]; myotubes): Zoniporide>Cariporide, EIPA>Rimeporide

NC1=N[C@H](O)[C@H]2[C@H]3O[C@]4(O)O[C@@H]([C@@H](O)[C@@]2(N1)[C@@H]4O)[C@]3(O)CO [tetrodotoxin]
further decrease of 22Na+ influx [5]: around 8%
